{"source": "patent US10336732B2", "about": "“1-heterocyclyl isochromanyl compounds and analogs for treating CNS disorders” (Sunovion Pharmaceuticals Inc., priority 2015, dated 2019)", "set-up_in_all_cases": "concentration or dose not given beside the values", "key": {"α1 (non-selective)": {"test_system": "α1 (non-selective)", "assay": "In vitro radioligand binding assay, α1 (non-selective), [3H]prazosin", "settings": "rat cerebral cortex membranes", "procedure": "(§1) Certain compounds were tested by in vitro binding assays using standard procedures. […] These receptors and assays are well known to those skilled in the art, as exemplified by the following: Abramovitz, M. et al. (2000), Biochem. Biophys. Acta., 1483: 285-293 (EP4, IP (PGI2)); Aharony, D. et al. (1993), Mol. Pharmacol., 44: 356-363 (NK2); Ardati, A. et al. (1997), Mol. Pharmacol., 51: 816-824 (NOP (ORL1)); Bignon, E. et al. (1999), J. Pharmacol. Exp. Ther. 289: 742-751 (CCK1 (CCKA)); Bloomquist, B. T. et al. (1998), Biochem. Biophys. Res. Commun., 243: 474-479 (GAL2); Brockhaus, M. et al. (1990), Proc. Natl. Acad. Sci. U.S.A., 87: 3127-3131 (TNF-α); Brown, G. B. (1986), J. Neurosci., 6: 2064-2070 (Na+ channel (site 2)); Buchan, K. W. et al. (1994), Brit. J. Pharmacol., 112: 1251-1257 (ETA); Cesura, A. M. et al. (1990), Mol. Pharmacol., 37: 358-366 (MAO-A); Choi, D. S. et al. (1994), FEBS Lett., 352: 393-399 (5-HT2B); Clark, A. F. et al. (1996), Invest. Ophtalmol. Vis. Sci., 37: 805-813 (GR); Couvineau, A. et al. (1985), Biochem. J., 231: 139-143 (VPAC1 (VIP1)); Dorje, F. et al. (1991), J. Pharmacol. Exp. Ther., 256: 727-733 (M1, M2, M3, M4); Ferry, G. et al. (2001), Eur. J. Pharmacol., 417: 77-89 (PPARγ); Fuchs, S. et al. (2001), Mol. Med., 7: 115-124 (ETB); Fuhlendorff, J. et al. (1990), Proc. Natl. Acad. Sci. U.S.A., 87: 182-186 (Y2); Ganapathy M E. et al. (1999), J. Pharmacol. Exp. Ther., 289: 251-260 (sigma (non-selective)); Gopalakrishnan, M. et al. (1996), J. Pharmacol. Exp. Ther., 276: 289-297 (N neuronal α4β2); Greengrass, P. and Bremner, R. (1979), Eur. J. Pharmacol., 55: 323-326 (α1 (non-selective)); Grandy, D. K. et al. (1989), Proc. Natl. Acad. Sci. U.S.A., 86: 9762-9766 (D25); Guard, S. et al. (1993), Eur. J. Pharmacol., 240:177-184 (BB (non-selective)); Heuillet, E. et al. (1993), J. Neurochem., 60: 868-876 (NK1, P2X); Hope, A. G. et al. (1996), Brit. J. Pharmacol., 118: 1237-1245 (5-HT3); Hoyer, D. et al. (1985), Eur. J. Pharmacol., 118: 1-12 (5-HT1B); Hugues, M. et al. (1982), J. Biol. Chem., 257: 2762-2769 (5-HT2A, SKCa channel); Joseph, S. S. et al. (2004), Naun.-Sch. Arch. Pharm., 369: 525-532 (β2); Le, M. T. et al. (2005), Eur. J. Pharmacol., 513: 35-45 (AT1); Le Fur, G. et al. (1983), Life Sci., 33: 449-457) (BZD (peripheral); Lee, Y. M. et al. (1993), J. Biol. Chem., 268: 8164-8169 (CCK2 (CCKB)); Leurs, R. et al. (1994), Brit. J. Pharmacol., 112: 847-854 (H2); Levin, M. C. et al. (2002), J. Biol. Chem., 277: 30429-30435 (11); Lewin, A. H. et al. (1989), Mol. Pharmacol., 35: 189-194 (Cl− channel (GABA-gated)); Lukas, R. J. (1986), J. Neurochem., 46: 1936-1941 (N muscle-type); Luthin, D. R. et al. (1995), Mol. Pharmacol., 47: 307-313; (A2A); Mackenzie, R. G. et al. (1994), Eur. J. Pharmacol., 266: 79-85 (D3); Mulheron, J. G. et al. (1994), J. Biol. Chem., 269: 12954-12962 (5-HT1A); Meng, F. et al. (1993), Proc. Natl. Acad. Sci. U.S.A., 90: 9954-9958 (κ (KOP)); Monsma, F. J. et al. (1993), Mol. Pharmacol., 43: 320-327 (5-HT6); Neote, K. et al. (1993), Cell, 72: 415-425 (CCR1); Pacholczyk, T. et al. (1991), Nature, 350: 350-354 (sst (non-selective, norepinephrine transporter)); Peralta, E. G. et al. (1987), Embo. J., 6: 3923-3929 (M3); Pristupa, Z. B. et al. (1994), Mol. Pharmacol., 45: 125-135 (dopamine transporter); Pruneau, D. et al. (1998), Brit. J. Pharmacol., 125: 365-372 (B2); Rees, S. et al. (1994), FEBS Lett., 355: 242-246 (5-HT5a); Reynolds, I. J. et al. (1986), J. Pharmacol. Exp. Ther., 237: 731-738 (Ca2+ channel (L, verapamil site)); Rinaldi-Carmona, M. et al. (1996), J. Pharmacol. Exp. Ther., 278: 871-878 (CB1); Salvatore, C. A. et al. (1993), Proc. Natl. Acad. Sci. U.S.A., 90: 10365-10369 (A3); Sarau, H. M. et al. (1997), J. Pharmacol. Exp. Ther., 281: 1303-1311 (NK3); Schioth, H. B. et al. (1997), Neuropeptides, 31: 565-571 (MC4); Sharples, C. […]"}, "α2 (non-selective)": {"test_system": "α2 (non-selective)", "assay": "In vitro radioligand binding assay, α2 (non-selective), [3H]RX 821002", "settings": "rat cerebral cortex membranes", "procedure": "as §1"}, "5-HT2B": {"biological_target": "T1, 5-HT2B (Homo sapiens, UniProt P41595)", "T1 construct": "expressed in transfected cells; host or cells: CHO cells", "T1 sequence (P41595 whole entry)": "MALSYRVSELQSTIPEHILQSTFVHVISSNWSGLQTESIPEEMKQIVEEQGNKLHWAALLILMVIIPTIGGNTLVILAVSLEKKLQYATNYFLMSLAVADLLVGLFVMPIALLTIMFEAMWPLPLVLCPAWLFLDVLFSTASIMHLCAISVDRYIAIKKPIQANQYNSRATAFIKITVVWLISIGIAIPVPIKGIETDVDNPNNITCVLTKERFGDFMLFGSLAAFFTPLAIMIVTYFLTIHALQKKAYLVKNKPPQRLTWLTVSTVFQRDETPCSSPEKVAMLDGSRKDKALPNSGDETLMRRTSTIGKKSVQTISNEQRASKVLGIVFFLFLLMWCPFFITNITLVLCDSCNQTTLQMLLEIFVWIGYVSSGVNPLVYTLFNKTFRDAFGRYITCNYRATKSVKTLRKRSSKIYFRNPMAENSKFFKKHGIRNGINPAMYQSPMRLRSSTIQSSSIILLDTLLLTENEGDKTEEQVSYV", "assay": "In vitro radioligand binding assay, 5-HT2B, [125I](±)DOI", "settings": "human recombinant (CHO cells)", "procedure": "as §1"}}, "data": [{"smiles": "Fc1ccc2c(c1)CCO[C@H]2[C@@H]1CCCN1", "note": "[Compound I-9, (S)-2-((R)-6-fluoroisochroman-1-yl)pyrrolidine]", "values": [{"measurement": "α1 percent inhibition of specific binding", "setting": "α1 (non-selective)", "result": 73, "unit": "%"}, {"measurement": "α2 percent inhibition of specific binding", "setting": "α2 (non-selective)", "result": 91, "unit": "%"}, {"measurement": "5HT2b percent inhibition of specific binding", "setting": "5-HT2B", "result": 76, "unit": "%"}]}, {"smiles": "Fc1ccc2c(c1)[C@H]([C@@H]1CCCN1)OCC2", "note": "[Compound I-5, (2S)-2-((R)-7-fluoroisochroman-1-yl)pyrrolidine]", "values": [{"measurement": "α1 percent inhibition of specific binding", "setting": "α1 (non-selective)", "result": 59, "unit": "%"}, {"measurement": "α2 percent inhibition of specific binding", "setting": "α2 (non-selective)", "result": 96, "unit": "%"}, {"measurement": "5HT2b percent inhibition of specific binding", "setting": "5-HT2B", "result": 72, "unit": "%"}]}, {"smiles": "Fc1ccc2c(c1)CCO[C@H]2[C@@H]1CCN1", "note": "[Compound I-90, (S)-2-((R)-6-fluoroisochroman-1-yl)azetidine]", "values": [{"measurement": "α1 percent inhibition of specific binding", "setting": "α1 (non-selective)", "result": 64, "unit": "%"}, {"measurement": "α2 percent inhibition of specific binding", "setting": "α2 (non-selective)", "result": 71, "unit": "%"}, {"measurement": "5HT2b percent inhibition of specific binding", "setting": "5-HT2B", "result": 77, "unit": "%"}]}, {"smiles": "Fc1cccc2c1CCO[C@@H]2[C@H]1CCN1", "note": "[Compound I-96, (R)-2-((S)-5-fluoroisochroman-1-yl)azetidine]", "values": [{"measurement": "α1 percent inhibition of specific binding", "setting": "α1 (non-selective)", "result": 81, "unit": "%"}, {"measurement": "α2 percent inhibition of specific binding", "setting": "α2 (non-selective)", "result": 81, "unit": "%"}, {"measurement": "5HT2b percent inhibition of specific binding", "setting": "5-HT2B", "result": 58, "unit": "%"}]}, {"smiles": "Fc1cccc2c1[C@H]([C@@H]1CCCN1)OCC2", "note": "[Compound I-1, (S)-2-((R)-8-fluoroisochroman-1-yl)pyrrolidine]", "values": [{"measurement": "α1 percent inhibition of specific binding", "setting": "α1 (non-selective)", "result": 55, "unit": "%"}, {"measurement": "α2 percent inhibition of specific binding", "setting": "α2 (non-selective)", "result": 95, "unit": "%"}, {"measurement": "5HT2b percent inhibition of specific binding", "setting": "5-HT2B", "result": 79, "unit": "%"}]}, {"smiles": "Fc1cccc2c1[C@H]([C@@H]1CCN1)OCC2", "note": "[Compound I-83, (S)-2-((R)-8-fluoroisochroman-1-yl)azetidine]", "values": [{"measurement": "α2 percent inhibition of specific binding", "setting": "α2 (non-selective)", "result": 77, "unit": "%"}, {"measurement": "5HT2b percent inhibition of specific binding", "setting": "5-HT2B", "result": 83, "unit": "%"}]}, {"smiles": "Fc1cccc2c1CCO[C@@H]2[C@@H]1CCN1", "note": "[Compound I-94, (S)-2-((S)-5-fluoroisochroman-1-yl)azetidine]", "values": [{"measurement": "α1 percent inhibition of specific binding", "setting": "α1 (non-selective)", "result": 72, "unit": "%"}, {"measurement": "5HT2b percent inhibition of specific binding", "setting": "5-HT2B", "result": 76, "unit": "%"}]}, {"smiles": "Clc1ccc2c(c1)[C@H]([C@@H]1CCCN1)OCC2", "note": "[Compound I-29, (S)-2-((R)-7-chloroisochroman-1-yl)pyrrolidine]", "values": [{"measurement": "α1 percent inhibition of specific binding", "setting": "α1 (non-selective)", "result": 69, "unit": "%"}, {"measurement": "α2 percent inhibition of specific binding", "setting": "α2 (non-selective)", "result": 97, "unit": "%"}, {"measurement": "5HT2b percent inhibition of specific binding", "setting": "5-HT2B", "result": 80, "unit": "%"}]}]}
